Laboratory results from patent publication US20110301170A1, “Inhibitors of JNK” (priority 2010, published 2011).

test system: T1, JNK; experiment: JNK Assay in vitro (phosphorylation of GST-ATF2 with [γ-33P] ATP); assay type: biochemical, Human; conditions: IC50 affinity values; JNK isoform (JNK1α1, JNK2α2 or JNK3) not stated; Km concentrations of ATP and substrate; 30° C. for 30 min
T1 construct: Human JNK2α2 assay contains 1 nM enzyme; Human JNK1α1 assay contains 2 nM enzyme
Method: JNK activity was measured by phosphorylation of GST-ATF2 (19-96) with [-^33P] ATP. […] Human JNK2α2 assay contains 1 nM enzyme, 1 μM ATF2, 8 μM ATP with 1 uCi [γ-^33P] ATP. Human JNK1α1 assay contains 2 nM enzyme, 1 μM ATF2, 6 μM ATP with 1 μCi [γ-^33P] ATP. Human JNK3 (Upstate Biotech #14-501M) assay contains 2 nM enzyme, 1 μM ATF2, 4 μM ATP with 1 μCi [γ-^33P] ATP. The enzyme assay was carried out in the presence or absence of several compound concentrations. JNK and compound were pre-incubated for 10 min., followed by initiation of the enzymatic reaction by adding ATP and the substrate. The reaction mixture was incubated at 30° C. for 30 min. At the end of incubation, the reaction was terminated by transferring 25 μl of the reaction mixture to 150 μl of 10% glutathione Sepharose® slurry (Amersham #27-4574-01) containing 135 mM EDTA. The reaction product was captured on the affinity resin, and washed on a filtration plate (Millipore, MABVNOB50) with phosphate buffered saline for six times to remove free radionucleotide. The incorporation of ^33P into ATF2 was quantified on a microplate scintillation counter (Packard Topcount). Compound inhibition potency on JNK was measured by IC50 value generated from ten concentration inhibition curves fitted into the 3-parameter model: % inhibition=Maximum/(1+(IC50/[Inhibitor])^slope). Data were analyzed on Microsoft Excel for parameter estimation.

Row | IC50 | Structure (SMILES)
1 | 65 nM | C=C(C)c1cccc2c1ccn2-c1ccnc(N[C@H]2CC[C@H](C(=O)N3CCn4c(C)cnc4C3)CC2)n1 [Compound 10, {4-[4-(4-Isopropenyl-indol-1-yl)-pyrimidin-2-ylamino]-cyclohexyl}-(3-methyl-5,6-dihydro-8H-imidazo[1,2-a]pyrazin-7-yl)-methanone]
2 | 97 nM | Cc1cnc2n1CCN(C(=O)[C@H]1CC[C@H](Nc3nccc(-n4ccc5c(OC(F)F)cccc54)n3)CC1)C2 [Compound 11, {4-[4-(4-Difluoromethoxy-indol-1-yl)-pyrimidin-2-ylamino]-cyclohexyl}-(3-methyl-5,6-dihydro-8H-imidazo[1,2-a]pyrazin-7-yl)-methanone]
3 | 12 nM | CS(=O)(=O)CCCOc1cccc2c1cnn2-c1ccnc(N[C@H]2CC[C@H](C(=O)N3CCn4cc(C(F)(F)F)nc4C3)CC2)n1 [Compound 13, (4-{4-[4-(3-Methanesulfonyl-propoxy)-indazol-1-yl]-pyrimidin-2-ylamino}-cyclohexyl)-(2-trifluoromethyl-5,6-dihydro-8H-imidazo[1,2-a]pyrazin-7-yl)-methanone]
4 | 12 nM | O=C([C@H]1CC[C@H](Nc2nccc(-n3ncc4c(OCC5CCS(=O)(=O)C5)cccc43)n2)CC1)N1CCn2ccnc2C1 (some centres unmarked) [Compound 15, (5,6-Dihydro-8H-imidazo[1,2-a]pyrazin-7-yl)-(4-{4-[4-(1,1-dioxo-tetrahydro-1λ6-thiophen-3-ylmethoxy)-indazol-1-yl]-pyrimidin-2-ylamino}-cyclohexyl)-methanone]
5 | 32 nM | Cc1nnc2n1CCN(C(=O)[C@H]1CC[C@H](Nc3nccc(-n4ccc5c(OCCCS(C)(=O)=O)cccc54)n3)CC1)C2 [Compound 23, (4-{4-[4-(3-Methanesulfonyl-propoxy)-indol-1-yl]-pyrimidin-2-ylamino}-cyclohexyl)-(3-methyl-5,6-dihydro-8H-[1,2,4]triazolo[4,3-a]pyrazin-7-yl)-methanone]
6 | 17 nM | O=C([C@H]1CC[C@H](Nc2nccc(-n3ccc4c(OCC5CCS(=O)(=O)C5)cccc43)n2)CC1)N1CCn2cnnc2C1 (some centres unmarked) [Compound 24, (5,6-Dihydro-8H-[1,2,4]triazolo[4,3-a]pyrazin-7-yl)-(4-{4-[4-(1,1-dioxo-tetrahydro-1λ6-thiophen-3-ylmethoxy)-indol-1-yl]-pyrimidin-2-ylamino}-cyclohexyl)-methanone]
7 | 191 nM | C=C(C)c1cccc2c1ccn2-c1ccnc(N[C@H]2CC[C@H](C(=O)N3CCn4cnnc4C3)CC2)n1 [Compound 25, (5,6-Dihydro-8H-[1,2,4]triazolo[4,3-a]pyrazin-7-yl)-{4-[4-(4-isopropenyl-indol-1-yl)-pyrimidin-2-ylamino]-cyclohexyl}-methanone]
8 | 174 nM | C=C(C)c1cccc2c1ccn2-c1ccnc(N[C@H]2CC[C@H](C(=O)N3CCn4c(C)nnc4C3)CC2)n1 [Compound 26, {4-[4-(4-Isopropenyl-indol-1-yl)-pyrimidin-2-ylamino]-cyclohexyl}-(3-methyl-5,6-dihydro-8H-[1,2,4]triazolo[4,3-a]pyrazin-7-yl)-methanone]
9 | 269 nM | O=C([C@H]1CC[C@H](Nc2nccc(-n3ccc4c(OC(F)F)cccc43)n2)CC1)N1CCn2cnnc2C1 [Compound 27, {4-[4-(4-Difluoromethoxy-indol-1-yl)-pyrimidin-2-ylamino]-cyclohexyl}-(5,6-dihydro-8H-[1,2,4]triazolo[4,3-a]pyrazin-7-yl)-methanone]
10 | 228 nM | Cc1nnc2n1CCN(C(=O)[C@H]1CC[C@H](Nc3nccc(-n4ccc5c(OC(F)F)cccc54)n3)CC1)C2 [Compound 28, {4-[4-(4-Difluoromethoxy-indol-1-yl)-pyrimidin-2-ylamino]-cyclohexyl}-(3-methyl-5,6-dihydro-8H-[1,2,4]triazolo[4,3-a]pyrazin-7-yl)-methanone]
11 | 58 nM | Cc1cccc2c1nnn2-c1ccnc(N[C@H]2CC[C@H](C(=O)N3CCn4cc(C(F)(F)F)nc4C3)CC2)n1 [Compound 33, {4-[4-(4-Methyl-benzotriazol-1-yl)-pyrimidin-2-ylamino]-cyclohexyl}-(2-trifluoromethyl-5,6-dihydro-8H-imidazo[1,2-a]pyrazin-7-yl)-methanone]
